“Also recorded” adds a separate entry of the source. Structures can show the parent of a compound that is named as a salt. Marks after values point to notes of the source that are not given here.
Legend:
[1] = target: EAAT1 (endogenous, MDA-MB-468 cells) (Homo sapiens, UniProt P43003); test: Impedance-based phenotypic assay on MDA-MB-468 cells; type: cell-based
Procedure: MDA-MB-468 cells were cultured as adherent cells in DMEM containing 10% (v/v) FCS, 2 mM Glutamax, 100 IU/ml penicillin and 100 μg/ml streptomycin (culture medium) at 37°C and 5% CO2. Cells were split twice weekly at 1:3–1:4 ratios in 10 cm culture dishes.
In short, cells are cultured in medium on gold-plated electrodes in microwell E-plates.
Assays were performed at 37°C and 5% CO2 in 96-well PET E-plates in a total volume of 100 µl per well. Prior to cell seeding, the baseline impedance (Z0) was measured in the recording station in 40 µl (two compound additions) or 45 µl (one compound addition) medium in the presence (+) or absence (−) of 1 μg/ml dox. All compounds were diluted in phosphate-buffered saline (PBS) and added in 5 µl per addition using a VIAFLO 96 handheld electronic 96 channel pipette (INTEGRA Biosciences, Tokyo, Japan). When DMSO was used as a solvent for a compound, the final amount of DMSO was kept at 0.1% per well and was included in the vehicle (PBS/DMSO). All conditions were tested at two technical replicates per plate.
Experimental data was recorded using RTCA Software v2.0 or v2.1.1 (ACEA Biosciences). In the RTCA Software CI values were normalized to the time point prior to substrate/agonist stimulation resulting in normalized Cell Index (nCI) values. The nCI data were exported and subsequent analyses and data visualizations were done using GraphPad Prism v9 (GraphPad Software, San Diego, CA, United States). In all experiments, nCI values of vehicle-only conditions were subtracted from all other conditions to correct for vehicle-induced, substrate-independent effects. […] The potency values of substrates and inhibitory potencies of EAAT inhibitors were determined by fitting the net AUC data to a sigmoidal concentration-effect curve with a variable slope.

JumpIn-EAAT1 cells = test: Targeted metabolomics (LC-MS/MS) of intracellular metabolite levels; type: cell-based, human; details: 1 mM substrate, 2 h
Procedure: JumpIn-EAAT1 cells were plated at 150,000 cells/well in 24 well poly-L-lysine coated plates in culture medium in the absence (−dox) or presence (+dox) of 1 μg/ml doxycycline and grown at 37°C and 5% CO2. After 24 h, the medium was refreshed and cells were pretreated with vehicle (PBS/DMSO) or 10 µM TFB-TBOA. […] For lysis, cells were first gently washed with room temperature bicarbonate buffer (91 mM NH4HCO3, pH 7.4). […] The cells were then scraped and transferred to a pre-cooled Eppendorf tube and immediately snap frozen in liquid nitrogen. Samples were thawed on ice before being centrifuged at 16,000 × g for 10 min at 4°C. The clarified metabolite-containing supernatants were moved into a high-performance liquid chromatography vial and stored at −80°C until LC-MS/MS analysis.
Cell extracts were dried using a nitrogen evaporator. The dry residue was reconstituted in 16 µl H2O and 4 µl of sample extract was used for LC-MS/MS analysis. […] The column was maintained at a temperature of 40°C and 4 µl of sample was injected per run. The mobile phase A was 3% MeOH (v/v), 10 mM tributylamine, 15 mM acetic acid in H2O, and mobile phase B was 10 mM tributylamine, 15 mM acetic acid in MeOH. The gradient elution with a flow rate 0.25 mL/min was performed for a total time of 24 min. […] The metabolites of interest were detected using a dynamic Multiple Reaction Monitoring (MRM) mode. The MassHunter 10.0 software (Agilent Technologies) was used for the data processing. Ten-point linear calibration curves with internal standardization were constructed for the quantification of metabolites.
Volcano plots were generated to visualize the significant up- or downregulation of intracellular metabolite concentrations. The log2 fold change upon substrate addition is plotted against the −log10 adjusted p-value.

EAAT1-3 = details: read-out: Steady-state affinities (Km), ref Arriza et al., 1994, Tzingounis and Wadiche, 2007; cited from earlier work

Chain of EAAT1 (endogenous, MDA-MB-468 cells) (P43003 whole entry): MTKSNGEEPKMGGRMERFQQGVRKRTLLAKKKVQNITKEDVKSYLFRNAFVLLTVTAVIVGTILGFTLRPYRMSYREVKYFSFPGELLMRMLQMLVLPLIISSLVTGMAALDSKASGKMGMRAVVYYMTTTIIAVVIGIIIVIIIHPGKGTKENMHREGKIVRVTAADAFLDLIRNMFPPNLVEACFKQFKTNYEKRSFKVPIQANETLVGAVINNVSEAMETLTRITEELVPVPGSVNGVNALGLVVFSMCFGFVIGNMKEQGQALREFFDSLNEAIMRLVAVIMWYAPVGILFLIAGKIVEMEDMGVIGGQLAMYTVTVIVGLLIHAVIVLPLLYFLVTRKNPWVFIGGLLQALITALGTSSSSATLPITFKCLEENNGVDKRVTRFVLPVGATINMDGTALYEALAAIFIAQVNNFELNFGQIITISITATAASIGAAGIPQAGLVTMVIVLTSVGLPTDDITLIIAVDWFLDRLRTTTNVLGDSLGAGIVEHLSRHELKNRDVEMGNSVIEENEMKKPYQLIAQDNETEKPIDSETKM

N[C@@H](CCC(=O)O)C(=O)O [L-glutamate, L-glutamic acid monosodium salt monohydrate]
Substrate pEC50 ± SEM [1]: 4.0 ± 0.2 ^b
Intracellular cAMP levels (JumpIn-EAAT1 cells): significant elevations
Intracellular glutamine level (JumpIn-EAAT1 cells): not significantly altered
Levels of TCA cycle intermediates and related metabolites (JumpIn-EAAT1 cells): increased
Increase of intracellular aspartate (JumpIn-EAAT1 cells; +dox): 5 fold
Increase of intracellular glutamate (JumpIn-EAAT1 cells; +dox): 5 fold
Intracellular taurine level (JumpIn-EAAT1 cells; +dox): significantly reduced; also recorded: significant decrease
Km (EAAT1-3): ~20 µM
